Results from patent US9822069B2, “Urea derivative or pharmacologically acceptable salt thereof” (KYORIN PHARMACEUTICAL CO. LTD., priority 2013, dated 2017).
pEC50: −log10 of the molar value.

How the values were obtained:
[1] = tested on: mouse (BALB/c, male); assay: Effect of lipopolysaccharide induction on neutrophilic infiltration in mouse lung; assay type: in vivo; settings: neutrophil infiltration in BAL fluid, LPS-exposed BALB/c mouse, oral; for inhibition in vivo at 3 mg/kg / inhibition in vivo at 1 mg/kg: 5 h, read-out: SUPPRESSION RATIO
Method: Effect of Lipopolysaccharide Induction on Neutrophilic Infiltration in Mouse Lung A compound to be tested was orally administrated to a mouse (BALB/c, male), and after 30 minutes, the mouse was placed in a plastic container. Lipopolysaccharide (0.3 mg/mL) dissolved in physiological saline was aerosolized with an ultrasonic wave nebulizer (NE-U17, OMRON Corporation), and exposed to the mouse for 10 minutes. After 5 hours, the anesthetized mouse was sacrificed by exsanguination. A cannula was inserted in the respiratory tract and bronchoalveolar lavage (BAL) with 1 mL of 0.85% NaCl liquid containing 0.4% sodium citrate was carried out. This operation was repeated 3 times, to obtain a BAL fluid. The BAL fluid was centrifuged at 4° C. and ×200 g for 5 minutes, and the pellet was suspended in a physiological saline containing 0.1% BSA. The number of white blood cells was counted using Turks solution with a microscope, and the total white blood cell count was calculated. The white blood cells were fixed on a glass slide using Cytospin 3 (Thermo BioAnalysis Japan K. K.). The cells were stained with Diff-Quik (SYSMEX INTERNATIONAL REAGENTS CO., LTD.), and the number thereof was counted with a microscope, and the neutrophil ratio was calculated. The neutrophil ratio was multiplied by the total white blood cell count to calculate the total neutrophil count. An effect of the compound to be tested represents a percentage (%) of suppression ratio relative to the neutrophil count in a control.

[2] = target: T1, human FPRL1 (Homo sapiens, UniProt P25090); assay: Measurement test of agonist activity on human FPRL1 (test of calcium mobilization in cell, HEK293 with human FPRL1 and Gα15 expression vectors); assay type: cell-based; settings: calcium mobilization in HEK293 cells with human FPRL1 and Gα15 expression vectors
T1 construct: expressed in transfected cells; host or cells: HEK293 (JCRB9068, NIBIO), transient transfection with pCMV-script vectors using Lipofectamine 2000
T1 sequence (P25090 1-351): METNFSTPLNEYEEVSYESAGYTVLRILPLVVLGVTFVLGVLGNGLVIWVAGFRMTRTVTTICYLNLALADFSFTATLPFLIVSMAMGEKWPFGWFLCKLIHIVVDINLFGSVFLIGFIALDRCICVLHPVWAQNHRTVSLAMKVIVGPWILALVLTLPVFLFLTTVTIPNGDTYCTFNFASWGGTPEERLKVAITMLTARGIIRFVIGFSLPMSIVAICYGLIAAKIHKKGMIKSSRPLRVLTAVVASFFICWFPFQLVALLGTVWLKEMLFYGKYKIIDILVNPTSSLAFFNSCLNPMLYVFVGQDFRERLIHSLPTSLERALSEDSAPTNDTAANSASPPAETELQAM
Procedure, shortened: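 HEK293 transiently co-transfected with human FPRL1 and Gα15, plated 24 h before assay, loaded with Fluo-4 NW dye plus probenecid. Compounds in eight 10-fold dilutions (DMSO stocks 10^−2 to 10^−9 M, then diluted 100-fold in assay buffer); calcium mobilization read on Flexstation for EC50.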

| SMILES | pEC50 [2] | inhibition in vivo at 3 mg/kg [1] [%] | inhibition in vivo at 1 mg/kg ([1]; dose 1 mg/kg) [%] | SUPPRESSION RATIO (%) ([1]; dose 1 mg/kg) |
| --- | --- | --- | --- | --- |
| COc1ccc([C@@H]2CNC(=O)[C@H]2NC(=O)Nc2ccc(F)cc2)c(F)c1 (single isomer, unassigned) [EXAMPLE 1-9, (−)-1-[(3S*,4R*)-4-(2-fluoro-4-methoxyphenyl)-2-oxopyrrolidin-3-yl]-3-(4-fluorophenyl)urea] | 9.35 | 98.5 |  |  |
| COc1cc(F)c([C@@H]2CNC(=O)[C@H]2NC(=O)Nc2ccc(F)cc2)c(F)c1 (single isomer, unassigned) [EXAMPLE 1-12, (−)-1-[(3S*,4R*)-4-(2,6-difluoro-4-methoxyphenyl)-2-oxopyrrolidin-3-yl]-3-(4-fluorophenyl)urea] | 10.22 |  | 96.8 |  |
| O=C(Nc1ccc(F)cc1)N[C@@H]1C(=O)NC[C@H]1c1cc2c(cc1F)OCC2 (single isomer, unassigned) [EXAMPLE 1-16, (−)-1-[(3S*,4R*)-4-(6-fluoro-2,3-dihydrobenzofuran-5-yl)-2-oxopyrrolidin-3-yl]-3-(4-fluorophenyl)urea] | 9.62 |  | 95.8 |  |
| COc1cnc([C@@H]2CNC(=O)[C@H]2NC(=O)Nc2ccc(F)cc2)c(F)c1 (single isomer, unassigned) [EXAMPLE 1-18, (−)-1-[(3S*,4R*)-4-(3-fluoro-5-methoxypyridin-2-yl)-2-oxopyrrolidin-3-yl]-3-(4-fluorophenyl)urea] | 9.44 |  | 98.3 |  |
| COc1cc(F)c([C@@H]2CNC(=O)[C@H]2NC(=O)Nc2ccc(Cl)cc2)c(F)c1 (single isomer, unassigned) [EXAMPLE 1-22, (−)-1-(4-chlorophenyl)-3-[(3S*,4R*)-4-(2,6-difluoro-4-methoxyphenyl)-2-oxopyrrolidin-3-yl]urea] | 9.96 |  | 93.1 |  |
| COc1cc(F)c([C@@H]2CNC(=O)[C@H]2NC(=O)Nc2ccc(C#N)cc2)c(F)c1 (single isomer, unassigned) [EXAMPLE 1-23, (−)-1-(4-cyanophenyl)-3-[(3S*,4R*)-4-(2,6-difluoro-4-methoxyphenyl)-2-oxopyrrolidin-3-yl]urea] | 9.11 | 98.9 |  |  |
| COc1ccc([C@@H]2CN(CCO)C(=O)[C@H]2NC(=O)Nc2ccc(F)cc2)c(F)c1 (single isomer, unassigned) [EXAMPLE 25-1, (−)-1-[(3S*,4R*)-4-(2-Fluoro-4-methoxyphenyl)-1-(2-hydroxyethyl)-2-oxopyrrolidin-3-yl]-3-(4-fluorophenyl)urea] | 10.40 | 99.1 |  |  |

The next lines start with results.

| pEC50 [2] | SMILES | inhibition in vivo at 3 mg/kg [1] [%] | inhibition in vivo at 1 mg/kg ([1]; dose 1 mg/kg) [%] | SUPPRESSION RATIO (%) ([1]; dose 1 mg/kg) |
| --- | --- | --- | --- | --- |
| 10.15 | COc1cc(F)c([C@@H]2CN(CCO)C(=O)[C@H]2NC(=O)Nc2ccc(F)cc2)c(F)c1 (single isomer, unassigned) [EXAMPLE 26-1, (−)-1-[(3S*,4R*)-4-(2,6-Difluoro-4-methoxyphenyl)-1-(2-hydroxyethyl)-2-oxopyrrolidin-3-yl]-3-(4-fluorophenyl)urea] |  | 99.6 |  |
| 9.89 | CO/N=C1\NC[C@@H](c2ccc(OC)cc2)[C@@H]1NC(=O)Nc1ccc(F)cc1 (single isomer, unassigned) [EXAMPLE 32-1, (−)-1-(4-Fluorophenyl)-3-[(3S*,4R*,Z)-2-(methoxyimino)-4-(4-methoxyphenyl)pyrrolidin-3-yl]urea] | 99 |  |  |
| 10.30 | CO/N=C1\NC[C@@H](c2c(F)cc(OC)cc2F)[C@@H]1NC(=O)Nc1ccc(F)cc1 (single isomer, unassigned) [EXAMPLE 32-3, (−)-1-[(3S*,4R*,Z)-4-(2,6-difluoro-4-methoxyphenyl)-2-(methoxyimino)pyrrolidin-3-yl]-3-(4-fluorophenyl)urea] | 99.1 |  |  |
| 10.52 | COc1cc(F)c([C@@H]2CN/C(=N\OCCO)[C@H]2NC(=O)Nc2ccc(F)cc2)c(F)c1 (single isomer, unassigned) [EXAMPLE 32-5, (−)-1-{(3S*,4R*,Z)-4-(2,6-difluoro-4-methoxyphenyl)-2-[(2-hydroxyethoxy)imino]pyrrolidin-3-yl}-3-(4-fluorophenyl)urea] |  | 99.8 |  |
| 9.57 | COc1cc(F)c([C@@H]2CN/C(=N\OCCO)[C@H]2NC(=O)Nc2ccc(C)cc2)c(F)c1 (single isomer, unassigned) [EXAMPLE 32-12, (−)-1-{(3S*,4R*,Z)-4-(2,6-difluoro-4-methoxyphenyl)-2-[(2-hydroxyethoxy)imino]pyrrolidin-3-yl}-3-(p-tolyl)urea] |  |  | 96.8 |
